From patent US8352031B2, “Protein activity modification” (Impulse Dynamics NV, priority 2004, dated 2013)
Values joined by “and” are separate entries in the source; they are usually repeats but may differ in a detail not shown here. Equal entries are not always repeated.

Legend:
[1] = test system: phospholamban threonin-17; assay: Phosphorylation of PLB at threonine-17 in failed LV tissue homogenate with/without PK inhibitor and CCM signal (Western blot); format: biochemical, dog; conditions: for P-PLB threonin-17: single samples; for P-PLB threonin-17, Av: average
Procedure: (§1) The tissue homogenate was prepared in the following manner. […] The homogenate was then filtered through 4 layers of cheese cloth. The resulting homogenate was stored in ice and its protein concentration was determined by the Lowry method.
(§2) The CCM signals were delivered to the homogenate as follows. The homogenate was diluted 2 fold in homogenate buffer and subsequently aliquotted 3 ml each in assay tubes. Assay tubes were divided into 2 sets (Set A and Set B), each subset consisting of […]. CCM signals were delivered for 10″, 30″, 1′, 5′, 30′, and 60′ in one of the sets, while the other set served as time control. The reaction was stopped by adding concentrated SDS. Protein assay on all the samples were performed by Lowry method.
(§3) Additional experiments of tissue homogenate were carried out in the presence and absence of protein kinese inhibitors. The homogenate was the same as above, from dogs with heart failure. […] CAS 62996-74-1.
The following tables summarize the experimental results for theronin-17: […]

normal cells = conditions: advertised; cited from earlier work
[2] = test system: human malignant glioma cell lines; conditions: advertised; cited from earlier work
platelet aggregation = conditions: advertised; cited from earlier work
phospholamban serine-16 = assay: Phosphorylation of PLB at serine-16 in failed LV tissue homogenate with/without PK inhibitor and CCM signal (Western blot); format: biochemical, dog; conditions: for P-PLB serine-16: single samples
Procedure: as §1, §2, §3

[3] = test system: dogs with intracoronary microembolization-induced chronic HF; assay: 3 months therapy with beta-blocker alone, beta-blocker + CCM or no therapy: LV EDV, ESV, EF; format: in vivo, dog
Procedure: In a set of experiments, dogs with intracoronary microembolization-induced chronic HF (LV EF 30%-40%) were randomized to 3 months therapy with either BB (beta-blockers) alone (extended release metoprolol succinate, 100 mg once daily), extended release metoprolol succinate (100 mg, once daily) combined with CCM therapy, or to no therapy at all (Control). LV end-diastolic volume (EDV), end-systolic volume (ESV) and EF were measured before randomization (PRE) and after 3 months of therapy (POST). To determine “treatment effect”, the change A between PRE and POST therapy for each group was compared among the 3 study groups.

[4] = Control + PK Inhibitor, no CCM, 10 sec
[5] = Control + PK Inhibitor, no CCM, 20 sec
[6] = Control + PK Inhibitor, no CCM, 30 sec
[7] = PK Inhibitor + CCM delivered for 60 sec

CN[C@@H]1C[C@H]2O[C@@](C)([C@@H]1OC)n1c3ccccc3c3c4c(c5c6ccccc6n2c5c31)C(=O)NC4 [STAUROSPORIN]
P-PLB threonin-17 [1, 4]: 8.9 and 9.5
P-PLB threonin-17, Av [1, 5]: 9.0
P-PLB threonin-17 [1, 6]: 8.2
response of threonin-17 phosphorylation to CCM in presence of kinese inhibitor ([1]; HF dog tissue homogenate): reduced and delayed response
P-PLB threonin-17 ([1]; PK Inhibitor + CCM delivered for 10 sec): 14.6 and 9.9 and 8.7
P-PLB threonin-17 ([1]; PK Inhibitor + CCM delivered for 20 sec): 8.3 and 15.0
P-PLB threonin-17, Av [1, 7]: 15.0
cell cycle arrest (normal cells): Arrests normal cells at the G1 checkpoint
apoptosis [2]: Induces apoptosis
platelet aggregation induced by collagen or ADP (platelet aggregation): inhibits platelet aggregation
P-PLB serine-16 (phospholamban serine-16; [4]): 8.0 and 9.0
P-PLB serine-16 (phospholamban serine-16; [5]): 12.2 and 14.0
P-PLB serine-16, Av (phospholamban serine-16; Control + PK Inhibitor, no CCM, 30 sec, average): 9.4
P-PLB serine-16 (phospholamban serine-16; [6]): 6.8 and 9.7
response of serine-16 phosphorylation to CCM in presence of kinese inhibitor (phospholamban serine-16; HF dog tissue homogenate): responded close to usual
P-PLB serine-16 (phospholamban serine-16; PK Inhibitor + CCM delivered for 30 sec): 14.3 and 13.0
P-PLB serine-16 (phospholamban serine-16; [7]): 22.7

COCCc1ccc(OCC(O)CNC(C)C)cc1 (stereo not drawn) [BB, metoprolol succinate]
LV EDV ([3]; BB alone): prevented the increase in EDV
LV EF ([3]; BB alone): significantly increased EF
LV ESV ([3]; BB alone): significantly reduced ESV
LV EDV ([3]; BB combined with CCM): prevented the increase in EDV
LV EF ([3]; BB combined with CCM): significantly increased EF
LV ESV ([3]; BB combined with CCM): significantly reduced ESV
Treatment effect (Δ) LV EF, PRE to POST ([3]; BB combined with CCM therapy): 12±1%
